Data on five compounds can be found in patent publication US7115728B1, “Human peroxisome proliferator activated receptor γ” (Ligand Pharmaceutical Incorporated, priority 1995, dated 2006).

The target in data set [1] is T1, hPPARγ (Homo sapiens, UniProt P37231).
T1 sequence (P37231 with tags, fused parts or gaps limits assumed): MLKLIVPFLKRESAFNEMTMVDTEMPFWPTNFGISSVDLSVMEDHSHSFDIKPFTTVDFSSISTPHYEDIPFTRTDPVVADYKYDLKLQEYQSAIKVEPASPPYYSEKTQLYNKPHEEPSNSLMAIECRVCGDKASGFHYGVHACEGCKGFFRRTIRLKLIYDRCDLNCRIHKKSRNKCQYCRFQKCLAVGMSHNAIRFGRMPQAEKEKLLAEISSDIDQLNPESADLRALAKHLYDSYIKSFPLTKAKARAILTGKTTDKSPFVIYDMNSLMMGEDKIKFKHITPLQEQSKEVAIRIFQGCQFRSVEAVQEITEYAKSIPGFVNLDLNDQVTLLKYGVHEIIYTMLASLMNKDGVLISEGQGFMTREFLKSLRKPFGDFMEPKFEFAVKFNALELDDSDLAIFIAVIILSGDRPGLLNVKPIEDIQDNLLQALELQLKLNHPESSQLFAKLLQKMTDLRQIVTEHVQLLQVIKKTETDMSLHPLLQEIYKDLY
The data set is described as follows: Co-transfection assay, transactivation of hPPARγ (pCMVhPPARγ) in CV-1 cells, FIG. 1. To be noted: CV-1 cells transfected with 0.1 μg pCMVhPPARγ; compared with empty vector pBKCMV (no receptor). On the procedure:
CV-1 cells were transfected with 0.1 μg pCMVhPPARγ or the empty expression vector pBKCMV (no receptor).
CV-1 or HepG2 cells were grown in Dulbecco's modified Eagle's medium (DMEM) supplemented with 10% (v/v) fetal bovine serum (Hyclone), 2 mM L-glutamine, and 55 μg/ml gentamicin (BioWhittaker). Cells were plated at 2×10^5 cells per well for HepG2 in 12 well cell culture dishes (Costar). The media was replaced with fresh media 20 hours later.
After 14 hours the cells were washed with 1×PBS and fresh media added (DMEM with 10% charcoal stripped fetal bovine serum (Hyclone) plus the above supplements). Ligands or PPAR activators were added to the final concentrations indicated. Control cells were treated with vehicle.
After another 24 hours the cells were harvested and the luciferase and β-galactosidase activities quantified on a Dynatech ML 1000 luminometer and a Beckman Biomek 1000 workstation respectively. The normalized response is the luciferase activity of the extract divided by the β-galactosidase activity of the same. Each data point represents the mean of three transfections. Error bars represent the standard deviation from the mean.
Control cells received an equivalent amount of vehicle. In the repression assays repressor plasmid dosage was kept constant by adding the appropriate amount of the empty expression vector pBKCMV.

The subject of data set [2] is mPPARγ. To be noted: Tontonoz et al. 1994; Kliewer et al.; cited from earlier work.
Data set [3] deals with T2, hPPARγ (Homo sapiens, UniProt P37231).
T2 construct: expressed in transfected cells; host or cells: CV-1 cells
T2 sequence (P37231 31-505): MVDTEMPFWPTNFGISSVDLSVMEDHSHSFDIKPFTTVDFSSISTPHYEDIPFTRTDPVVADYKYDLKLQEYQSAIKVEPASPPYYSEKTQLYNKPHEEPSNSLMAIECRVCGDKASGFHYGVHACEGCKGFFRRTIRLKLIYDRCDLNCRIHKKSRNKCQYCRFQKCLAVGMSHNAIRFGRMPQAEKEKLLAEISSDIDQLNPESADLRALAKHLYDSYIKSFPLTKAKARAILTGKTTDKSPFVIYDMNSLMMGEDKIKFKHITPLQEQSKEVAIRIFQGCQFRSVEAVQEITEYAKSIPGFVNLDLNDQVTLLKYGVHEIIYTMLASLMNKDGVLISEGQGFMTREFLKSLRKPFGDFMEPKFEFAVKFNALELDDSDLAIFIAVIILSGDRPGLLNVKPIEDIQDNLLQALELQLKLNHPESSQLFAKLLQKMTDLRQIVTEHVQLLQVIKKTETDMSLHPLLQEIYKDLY
The data set is described as follows: Co-transfection assay with pCMVhPPARγ3 and pPREA3-tk-LUC reporter in CV-1 cells, FIG. 4. It counts as cell-based. The following applies: CV-1 cells transfected with pCMVhPPARγ3; pPREA3-tk-LUC; 1 μM compound; read-out: fold induction of reporter gene. On the procedure:
(§1) CV-1 cells were transfected with pCMVhPPARγ3 or the empty expression vector pBKCMV (no receptor). Thiazolidinedione was added.
(§2) Biochem. Molec. Biol. 41, 733–738).
(§3) Control cells were treated with vehicle.
(§4) Each data point represents the mean of three transfections. Error bars represent the standard deviation from the mean.
To increase the level of hPPARγ protein synthesis, Applicant deleted a region containing the two inframe upstream ATG codons since these are absent in mouse PPARγ. pCMVhPPARγ was digested with NcoI, blunt ended with Klenow, and digested again with KpnI. The insert was isolated and directionally cloned into pBKCMV plasmid, which was digested with XbaI (blunt ended with Klenow) and KpnI. In the ensuing plasmid pCMVhPPARγ3, the translation initiation codon is within the context of a stronger Kozak translation initiation sequence.
(§5) A cotransfection assay was performed in CV-1 cells with the pPREA3-tk-LUC and 1 μM thiazolidinedione (BRL 49,653, see Ibrahimi et al., Molecular Pharmacology 46:1070–1076, 1994). Thiazolidinedione is an insulin sensitizer and has potential use in the treatment of non-insulin dependant diabetes mellitus.

Data set [4] concerns CV-1 cells transfected with the empty expression vector pBKCMV (no receptor). The data set is described as follows: Co-transfection assay, control CV-1 cells transfected with empty expression vector, FIG. 4. It counts as cell-based, monkey. The following applies: CV-1 cells transfected with the empty expression vector (no receptor); 1 μM compound. On the procedure:
as §1, §2, §3, §4, §5

Data set [5] has as its target T3, hPPARα (Homo sapiens, UniProt Q07869).
T3 construct: expressed in transfected cells; host or cells: CV-1 cells
T3 sequence (Q07869 1-468): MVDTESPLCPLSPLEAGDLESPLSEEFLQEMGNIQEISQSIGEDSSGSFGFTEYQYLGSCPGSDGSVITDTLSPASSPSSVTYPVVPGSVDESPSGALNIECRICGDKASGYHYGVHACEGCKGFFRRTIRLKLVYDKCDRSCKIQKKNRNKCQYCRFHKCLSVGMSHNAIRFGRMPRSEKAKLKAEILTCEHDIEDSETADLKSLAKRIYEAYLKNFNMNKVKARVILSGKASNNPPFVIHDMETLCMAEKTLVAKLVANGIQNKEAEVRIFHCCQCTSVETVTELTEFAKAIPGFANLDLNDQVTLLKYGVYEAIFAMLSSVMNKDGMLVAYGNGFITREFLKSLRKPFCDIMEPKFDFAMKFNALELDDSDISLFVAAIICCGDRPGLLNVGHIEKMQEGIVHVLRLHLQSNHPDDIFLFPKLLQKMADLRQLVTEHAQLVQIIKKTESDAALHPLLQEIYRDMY
The data set is described as follows: Co-transfection assay, activation of hPPARα, FIG. 2. The format is cell-based. To be noted: CV-1 cells transfected with 0.1 μg pCMVhPPARα; gemfibrozil final concentration printed as 100 M. On the procedure: CV-1 cells were transfected with 0.1 μg of pCMVhPPARα and 0.1 or 0.4 μg of pCMVhNUC1 or pCMVhPPARγ. Gemfibrozil was added to a final concentration of 100 µM.
as §2
Where indicated, 0–0.5 μg of hNUC1B plasmid or hPPARγ plasmid (repressor) was added. Repressor plasmid dosage was kept constant by the addition of appropriate amounts of the empty expression vector pBKCMV. Total amount of DNA was kept at 20 μg by the addition of pGEM DNA (Promega).
as §3, §4
hPPARα is activated in the presence of gemfibrozil. When hNUC1 or hPPARγ is contransfected into cells along with hPPARα, a dose dependant repression was observed (FIG. 2). Repression of hPPARα with hNUC1 is stronger than with hPPARγ. No repression with 0.1 μg of hPPARγ was observed while repression with 0.1 μg of hNUC1 was clearly seen. However, repression with 0.4 μg of hPPARγ was observed.

As for `CC1=C(/C=C/C(C)=C\C=C\C(C)=C\C(=O)O)C(C)(C)CCC1` [9-cis retinoic acid], in data set [1], the “activation of hPPARγ (fold induction of reporter gene versus control cells)” value was “same fold activation as in control transfections”.
Turning to `CCCCCC#CCC#CCC#CCC#CCCCC(=O)O` [ETYA, 5,8,11,14-eicosatetraynoic acid], the “transcriptional activation of mPPARγ” value in data set [2] is on record as “transcriptionally activated”.
With `CCCc1c(OCCCCc2nnn[nH]2)ccc(C(C)=O)c1O` [LY-171,883], the “transcriptional activation of mPPARγ” value in data set [2] is reported as “transcriptionally activated”.
Take `O=C1CSC(=O)N1` [Thiazolidinedione]: the fold induction at 1 µM in data set [3] came out at 25. In data set [4], the “fold activation of reporter gene” value was found to be 7 fold.
Regarding `Cc1ccc(C)c(OCCCC(C)(C)C(=O)O)c1` [gemfibrozil], in data set [5], the “activation of hPPARα” value is reported as “activated”.
